The supplement of paper PMC11451515

Tested on: P12-Ichikawa
Assay: cell viability relative to DMSO control; higher = less cytotoxic
Details: 48 h
In short: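 Three leukemia lines were tested: NOMO1 and SEM at 500 cells/well and P12-Ichikawa at 1000 cells/well. Each was adapted for at least four passages in each medium and seeded in 5 μl in 1536-well plates, and library compounds in DMSO were pin-dosed from 47 μM to 0.79 nM in 11 threefold steps. After 48 h at 37°C, CellTiter-Glo One luminescence was read. Viability is a percentage relative to DMSO wells on each plate, with cell-free wells as background.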

[1] = HPLM + 10% dialyzed FBS, 0.000781 µM
[2] = HPLM + 10% dialyzed FBS, 0.00234 µM
[3] = HPLM + 10% dialyzed FBS, 0.00702 µM
[4] = HPLM + 10% dialyzed FBS, 0.0211 µM
[5] = HPLM + 10% dialyzed FBS, 0.0632 µM
[6] = HPLM + 10% dialyzed FBS, 0.19 µM
[7] = HPLM + 10% dialyzed FBS, 0.569 µM
[8] = HPLM + 10% dialyzed FBS, 1.71 µM
[9] = HPLM + 10% dialyzed FBS, 5.12 µM
[10] = HPLM + 10% dialyzed FBS, 15.4 µM
[11] = HPLM + 10% dialyzed FBS, 46.1 µM
[12] = RPMI 5 mM glucose + 10% FBS, 0.000781 µM
[13] = RPMI 5 mM glucose + 10% FBS, 0.00234 µM
[14] = RPMI 5 mM glucose + 10% FBS, 0.00702 µM
[15] = RPMI 5 mM glucose + 10% FBS, 0.0211 µM
[16] = RPMI 5 mM glucose + 10% FBS, 0.0632 µM
[17] = RPMI 5 mM glucose + 10% FBS, 0.19 µM
[18] = RPMI 5 mM glucose + 10% FBS, 0.569 µM
[19] = RPMI 5 mM glucose + 10% FBS, 1.71 µM
[20] = RPMI 5 mM glucose + 10% FBS, 5.12 µM
[21] = RPMI 5 mM glucose + 10% FBS, 15.4 µM
[22] = RPMI 5 mM glucose + 10% FBS, 46.1 µM
[23] = RPMI 5 mM glucose + 10% dialyzed FBS, 0.000781 µM
[24] = RPMI 5 mM glucose + 10% dialyzed FBS, 0.00234 µM
[25] = RPMI 5 mM glucose + 10% dialyzed FBS, 0.00702 µM
[26] = RPMI 5 mM glucose + 10% dialyzed FBS, 0.0211 µM
[27] = RPMI 5 mM glucose + 10% dialyzed FBS, 0.0632 µM
[28] = RPMI 5 mM glucose + 10% dialyzed FBS, 0.19 µM
[29] = RPMI 5 mM glucose + 10% dialyzed FBS, 0.569 µM
[30] = RPMI 5 mM glucose + 10% dialyzed FBS, 1.71 µM
[31] = RPMI 5 mM glucose + 10% dialyzed FBS, 5.12 µM
[32] = RPMI 5 mM glucose + 10% dialyzed FBS, 15.4 µM
[33] = RPMI 5 mM glucose + 10% dialyzed FBS, 46.1 µM

Row | Structure (SMILES) | cell viability [1] | cell viability [2] | cell viability [3] | cell viability [4] | cell viability [5] | cell viability [6] | cell viability [7] | cell viability [8] | cell viability [9] | cell viability [10] | cell viability [11] | cell viability [12] | cell viability [13] | cell viability [14] | cell viability [15] | cell viability [16] | cell viability [17] | cell viability [18] | cell viability [19] | cell viability [20] | cell viability [21] | cell viability [22] | cell viability [23] | cell viability [24] | cell viability [25] | cell viability [26] | cell viability [27] | cell viability [28] | cell viability [29] | cell viability [30] | cell viability [31] | cell viability [32] | cell viability [33]
1 | C[C@H](NC(=O)/C(C#N)=C/c1cccc(Br)n1)c1ccccc1 | 107% | 113% | 112% | 121% | 119% | 122% | 120% | 45.1% | 7.82% | 7.53% | 7.45% | 112% | 119% | 112% | 111% | 118% | 125% | 131% | 88.3% | 9.63% | 6.78% | 6.3% | 111% | 109% | 113% | 111% | 109% | 126% | 121% | 79.2% | 9.86% | 7.21% | 6.61%
2 | N=C(CCSCc1csc(N=C(N)N)n1)N[S+](N)(=O)[O-] | 95.2% | 102% | 103% | 95.7% | 108% | 98.2% | 106% | 103% | 106% | 108% | 102% | 93.1% | 97.4% | 97.3% | 94% | 96.2% | 93.2% | 97.6% | 95.3% | 95.3% | 87.3% | 99.1% | 80.3% | 89.1% | 98.3% | 91% | 95.1% | 94.9% | 95% | 88.7% | 93.5% | 87.1% | 83.2%
3 | CC(C)NCC(O)COc1ccc(COCCOC(C)C)cc1 (centres undefined) | 115% | 117% | 105% | 103% | 113% | 118% | 112% | 96.5% | 92.6% | 107% | 99.5% | 113% | 121% | 120% | 120% | 131% | 124% | 115% | 110% | 110% | 116% | 115% | 113% | 106% | 107% | 111% | 114% | 104% | 105% | 104% | 104% | 104% | 104%
4 | C[C@H](O)[C@H]1[C@@H]2[C@H](C)C(=C(\N2C1=O)C(O)=O)/S[C@@H]3CN[C@H](CN[S+](N)([O-])=O)C3 | 118% | 125% | 132% | 129% | 124% | 125% | 124% | 121% | 121% | 113% | 104% | 123% | 126% | 123% | 128% | 124% | 122% | 123% | 111% | 117% | 103% | 105% | – | – | – | – | – | – | – | – | – | – | –
5 | Cc1cc(OCCCc2c(C(=O)O)n(Cc3cccnc3)c3c(-c4c(COc5ccc(N6CCN([S+](C)(=O)[O-])CC6)cc5)nn(C)c4C)cccc23)cc(C)c1Cl | 99.6% | 100% | 100% | 97% | 99.8% | 97.4% | 92.9% | 96.1% | 86.9% | 88.1% | 80.4% | 92.4% | 102% | 96.6% | 102% | 101% | 95.6% | 85.9% | 89.3% | 86.2% | 88.3% | 77.1% | 91.3% | 95% | 99.3% | 97.5% | 102% | 98.4% | 90.9% | 93.5% | 93.1% | 78.2% | 82.9%
